The values that follow come from ChEMBL document CHEMBL1135986, “Corrigendum to Synthesis and anti-angiogenic activity of 6-(1,2,4-thiadiazol-5-yl)-3-amino pyridazine derivatives [Bioorg. Med. Chem. Lett. 12 (2002) 589]” (Bioorg Med Chem Lett, 2002).

Series [1] in a line: Ocular toxicity was assessed after oral dosing at 40 mg/Kg b.i.d. for 4 days in male Wistar rats; No. The conditions noted are these: rat, in vivo, 96 h.
The subject of the next series is Mus musculus. In words: In vivo percentage inhibition of 3LL Lewis Lung tumor mets formation were measured after oral dosing b.i.d. for 28 days to B6D2F1 mice at a dose of 15 mg/kg b.i.d. The conditions noted are these: 672 h. In kind it is functional.
A short description of series [2]: Ocular toxicity was assessed after oral dosing at 40 mg/Kg b.i.d. for 4 days in male Wistar rats; Yes. The settings on record: rat, in vivo, 96 h.
Series [3] can be described thus: Ocular toxicity was assessed after oral dosing at 40 mg/Kg b.i.d. for 4 days in male Wistar rats; Very weak. The settings on record: rat, in vivo, 96 h.

For the compound `Nc1nsc(-c2ccc(N3CCN(c4cccc(C(F)(F)F)c4)CC3)nn2)n1`, in series [1], the Eye toxicity entry was “No toxicity”.
As to `FC(F)(F)c1cccc(N2CCN(C3CCN(c4ccc(-c5ncns5)nn4)CC3)CC2)c1`, the inhibition in vivo at 15 mg/kg in the series on Mus musculus is 54%. Also, in series [1], the Eye toxicity result is “No toxicity”.
Regarding `CNc1nsc(-c2ccc(N3CCN(c4cccc(C(F)(F)F)c4)CC3)nn2)n1`, the Eye toxicity result in series [1] is recorded as “No toxicity”.
Still for that read-out and setting: the same measure for `Cc1nsc(-c2nccc(N3CCN(c4cccc(C(F)(F)F)c4)CC3)n2)n1`: “No toxicity”.
As to `Cc1nsc(-c2ccc(N3CCN(c4cccc(C(F)(F)F)c4)CC3)nn2)n1`, the Eye toxicity result in series [2] was “Toxicity”.
Take `FC(F)(F)c1cccc(NC2CCN(c3ccc(-c4ncns4)nn3)CC2)c1`: the inhibition in vivo at 15 mg/kg with Mus musculus came to 42%. In addition, the Eye toxicity result in series [1] is on record as “No toxicity”.
In the case of `FC(F)(F)c1cccc(N2CCN(c3ccc(-c4ncns4)nn3)CC2)c1`, the Eye toxicity entry in series [1] is on record as “No toxicity”.
Turning to `CN(C)c1nsc(-c2ccc(N3CCC(N4CCN(c5cccc(C(F)(F)F)c5)CC4)CC3)nn2)n1`, 15 mg/kg produced 25% inhibition in vivo in the series with Mus musculus. Moreover, the Eye toxicity result in series [3] is “Very weak toxicity”.
On to `Cc1nsc(-c2ccc(N3CCN(c4cccc([N+](=O)[O-])c4)CC3)nn2)n1`, for which the Eye toxicity result in series [2] is “Yes”.
Take `CN(C)c1nsc(-c2ccc(N3CCN(c4cccc(C(F)(F)F)c4)CC3)nn2)n1`: testing at 15 mg/kg in the series on Mus musculus gave an inhibition in vivo of 39%. Also, in series [1], the Eye toxicity entry is “No toxicity”.
In the case of `Cc1nsc(-c2ccc(N3CCN(c4cccc(C(F)(F)F)c4)CC3)cc2)n1`, the Eye toxicity entry in series [1] was “No toxicity”.
The same measure, in the same setting: the same measure for `Cc1nsc(-c2ccc(N3CCN(c4cccc(C(F)(F)F)c4)CC3)nc2)n1`: “No toxicity”.
In the case of `Cc1nsc(-c2ccc(N3CCN(c4cc(C(F)(F)F)cc(C(F)(F)F)c4)CC3)nn2)n1`, in series [2], the Eye toxicity entry is recorded as “Yes”.
`Cc1nsc(-c2ccc(N3CCN(c4cccc(Cl)c4)CC3)nn2)n1`: the Eye toxicity result in series [2] is “Yes”.
As for `FC(F)(F)c1cc(N2CCN(c3ccc(-c4ncns4)nn3)CC2)cc(C(F)(F)F)c1`, in the series with Mus musculus, testing at 15 mg/kg gave an inhibition in vivo of 24%. Besides, the Eye toxicity entry in series [1] is listed as “No toxicity”.
Turning to `Cc1nsc(-c2ccc(N3CCN(c4ccccc4C(F)(F)F)CC3)nn2)n1`, the Eye toxicity result in series [2] was “Yes”.
As for `CN(C)c1nsc(-c2ccc(N3CCN(c4cc(C(F)(F)F)cc(C(F)(F)F)c4)CC3)nn2)n1`, the inhibition in vivo at 15 mg/kg in the series on Mus musculus amounted to 13%. Besides, in series [1], the Eye toxicity result is on record as “No toxicity”.
`Cc1nsc(-c2ccc(N3CCN(c4cc(Cl)cc(Cl)c4)CC3)nn2)n1`: the Eye toxicity entry in series [2] is recorded as “Yes”.
Regarding `CCc1nsc(-c2ccc(N3CCN(c4cccc(C(F)(F)F)c4)CC3)nn2)n1`, the Eye toxicity result in series [1] is reported as “No toxicity”.
